Reference: US9090701B2, “Methods of detecting oxidized calcium/calmodulin dependent protein kinase II” (University of Iowa Research Foundation, priority 2008, dated 2015)

Test system: oxidized CaMKII
Test: Oxidized / phosphorylated CaMKII in hearts of treated mice (immunostaining, immunoblot)
Type: in vivo
Procedure: Mice were anesthetized with ketamine (87.5 mg/kg) and xylazine (12.5 mg/kg), and a small incision was made in the skin near the spine, approximately 1 cm above the hip. Minipumps containing saline or AngII (3 mg/kg/day) were inserted and the skin was sutured closed. Other mice were given, daily injections of Iso (30 mg/kg/day, intraperitoneal) for 7 days. Animals were then sacrificed and the heart was removed, fixed, and embedded in paraffin. Transverse heart sections of 5 μm thickness were made. To confirm the identity of cardiomyocytes, heart sections were immunolabeled with alpha-actinin Ig (cardiomyocyte-specific marker). Only sections with >90% cardiomyocytes were used in experiments. (See FIG. 13.) Paraffin was removed, and TUNEL staining was performed using In Situ cell death detection kits, TMR Red (Roche). Nuclei were co-stained with DAPI. To determine percent of TUNEL positive nuclei, whole heart sections were divided into four quadrants and one image was taken at random within each quadrant. In the case of sections from post-MI mice, an average of 50% of the heart quadrants were from portions of the heart adjacent to the MI. An investigator blinded to the identity and treatment of the mice counted the number of total and TUNEL positive cells in each image.
Other sections were treated with either a general CaMKII antibody or oxidized CaMKII antiserum. Nuclei were co-stained with DAPI. Identity of cardiomyocytes was confirmed by co-stain with an antibody against α-actinin. Images were quantified for relative staining intensity using Image J (NIH, USA). Each image was divided into four quadrants, and one rectangular area of equal size and shape was randomly placed within the cytosolic area of each quadrant, excluding DAPI-stained nuclei. Relative intensity of an image was judged to be the mean of the intensity measurements taken in each quadrant. Both the investigators and technical personnel assigned to immunostaining and quantification were blinded to the genetic identity and treatment of the mice in all studies.
To determine the role of CaMKII oxidation In apoptosis, mice were treated with saline, AngII, or isoproterenol (Iso) for one week, and transverse heart, sections from these mice were probed for the production of oxidized CaMKII in vivo. […] Total CaMKII immunoreactivity remained constant regardless of treatment. […] (See FIG. 6).
Homogenized hearts from mice treated with saline, AngII, or Iso, and whole heart lysates were analyzed by immunoblot for oxidized CaMKII.
Methionine oxidation is specifically reversed by MsrA (Weissbach e.g., 2002), so it was hypothesized that MsrA^−/− mice would show enhanced vulnerability to AngII-mediated CaMKII oxidation and apoptosis. In order to test this idea, MsrA^−/− and WT control mice were implanted with AngII or saline elating osmotic mini pumps. […] In order to test if CaMKII oxidation and apoptosis were regulated by NADPH oxidase and MsrA in the setting of myocardial infarction, MsrA^−/−, p47^−/−, and WT mice were subjected to myocardial infarction surgery. […] Myocardial infarction surgery was performed on a larger cohort of MsrA^−/− and WT control mice to determine if increased CaMKII oxidation and apoptosis in MsrA^−/− mice translated into poorer functional outcomes.
To test the specificity of this antiserum, Western blots of isolated CaMKII after no treatment, oxidation with H2O2, or phosphorylation with ATP were performed. CaMKII samples were probed for either total protein using a general CaMKII antibody or for oxidized CaMKII with anti-oxCaMKII antiserum. […] (See FIG. 14A). To test the efficacy of the antiserum in tissue staining, mice were treated with either saline or angiotensin II, an oxidant stimulating agent in cardiac tissue, and stained heart sections and performed immunofluorescent stains for oxidized CaMKII. […] (See FIG. 14B).

Substance: angiotensin II (DRVYIHPF; Angiotensin-2; UniProt P01019 25-32, looked up) [AngII, oxidant stimulating agent in cardiac tissue]
- CaMKII oxidation in hearts (MsrA−/− mice, vs saline MsrA−/− and control hearts): significantly more CaMKII oxidation
- Oxidized CaMKII in heart sections (WT mice): more oxidized CaMKII than those treated with saline or Iso
- Staining for T287-phosphorylated CaMKII in heart sections (WT mice, AngII 3 mg/kg/day 1 week): increased staining
- Oxidized CaMKII in heart sections (WT mice, listed as angiotensin II): significant staining relative to the control
- Oxidized CaMKII in heart sections (p47−/− mice): did not show increased levels of oxidized CaMKII
- Staining for T287-phosphorylated CaMKII in heart sections (p47−/− mice): unaffected
- Oxidized CaMKII in whole heart lysates (immunoblot) (vs saline or Iso): significantly increased oxidized CaMKII levels
